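The compound was tested at five concentrations on cells cultured in 96-well plates, with a 48-hour exposure period. TGI is the concentration that stops growth completely.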
Assays:
Assay in all cases: inhibition of tumour cell growth, NCI panel, 48 h
K-562 leukemia = tested on: K-562 leukemia
M19-MEL melanoma = tested on: M19-MEL melanoma
UO-31 renal = tested on: UO-31 renal
SK-MEL-28 melanoma = tested on: SK-MEL-28 melanoma
HOP-18 NSCLC = tested on: HOP-18 NSCLC
786-0 renal = tested on: 786-0 renal
OVCAR-8 ovarian = tested on: OVCAR-8 ovarian
OVCAR-4 ovarian = tested on: OVCAR-4 ovarian
HCT-15 colon = tested on: HCT-15 colon
SN12C renal = tested on: SN12C renal
ACHN renal = tested on: ACHN renal
RPMI-8226 leukemia = tested on: RPMI-8226 leukemia
NCI-H522 lung = tested on: NCI-H522 lung
MALME-3M melanoma = tested on: MALME-3M melanoma
KM12 colon = tested on: KM12 colon
LOX IMVI melanoma = tested on: LOX IMVI melanoma
SW-620 colon = tested on: SW-620 colon
SF-268 CNS = tested on: SF-268 CNS
SK-MEL-2 melanoma = tested on: SK-MEL-2 melanoma
HCT-116 colon = tested on: HCT-116 colon
SF-539 CNS = tested on: SF-539 CNS
HOP-62 NSCLC = tested on: HOP-62 NSCLC
SF-295 CNS = tested on: SF-295 CNS
HT29 colon = tested on: HT29 colon
SK-MEL-5 melanoma = tested on: SK-MEL-5 melanoma
CCRF-CEM leukemia = tested on: CCRF-CEM leukemia
M14 melanoma = tested on: M14 melanoma
HCC-2998 colon = tested on: HCC-2998 colon
NCI-H23 lung = tested on: NCI-H23 lung
NCI-H460 lung = tested on: NCI-H460 lung
DLD-1 colon = tested on: DLD-1 colon
OVCAR-5 ovarian = tested on: OVCAR-5 ovarian
CAKI-1 renal = tested on: CAKI-1 renal
MOLT-4 leukemia = tested on: MOLT-4 leukemia
TK-10 renal = tested on: TK-10 renal
NCI-H226 lung = tested on: NCI-H226 lung
SNB-75 CNS = tested on: SNB-75 CNS
EKVX NSCLC = tested on: EKVX NSCLC
DMS 273 small cell lung = tested on: DMS 273 small cell lung
COLO 205 colon = tested on: COLO 205 colon
SR leukemia = tested on: SR leukemia
OVCAR-3 ovarian = tested on: OVCAR-3 ovarian
SNB-19 CNS = tested on: SNB-19 CNS
A549 NSCLC = tested on: A549 NSCLC
UACC-257 melanoma = tested on: UACC-257 melanoma
XF 498 CNS = tested on: XF 498 CNS
DMS 114 small cell lung = tested on: DMS 114 small cell lung
HOP-92 NSCLC = tested on: HOP-92 NSCLC
HL-60(TB) leukemia = tested on: HL-60(TB) leukemia
LXFL 529 NSCLC = tested on: LXFL 529 NSCLC
UACC-62 melanoma = tested on: UACC-62 melanoma
RXF 393 renal = tested on: RXF 393 renal
U251 CNS = tested on: U251 CNS
SNB-78 CNS = tested on: SNB-78 CNS
IGROV1 ovarian = tested on: IGROV1 ovarian
SK-OV-3 ovarian = tested on: SK-OV-3 ovarian
A498 renal = tested on: A498 renal
KM20L2 colon = tested on: KM20L2 colon

## Cc1ccc2oc(=O)c(-c3ccccc3)nc2c1
K-562 leukemia
  TGI: > 100 µM
M19-MEL melanoma
  TGI: 64.8 µM
UO-31 renal
  TGI: 95.1 µM
SK-MEL-28 melanoma
  TGI: > 100 µM
HOP-18 NSCLC
  TGI: 84.4 µM
786-0 renal
  TGI: > 100 µM
OVCAR-8 ovarian
  TGI: > 100 µM
OVCAR-4 ovarian
  TGI: 75.2 µM
HCT-15 colon
  TGI: 96.9 µM
SN12C renal
  TGI: > 100 µM
ACHN renal
  TGI: > 100 µM
RPMI-8226 leukemia
  TGI: > 100 µM
NCI-H522 lung
  TGI: 48.7 µM
MALME-3M melanoma
  TGI: 66.1 µM
KM12 colon
  TGI: 50.4 µM
LOX IMVI melanoma
  TGI: 62.9 µM
SW-620 colon
  TGI: > 100 µM
SF-268 CNS
  TGI: > 100 µM
SK-MEL-2 melanoma
  TGI: 43.8 µM
HCT-116 colon
  TGI: > 100 µM
SF-539 CNS
  TGI: 50.5 µM
HOP-62 NSCLC
  TGI: > 100 µM
SF-295 CNS
  TGI: > 100 µM
HT29 colon
  TGI: > 100 µM
SK-MEL-5 melanoma
  TGI: > 100 µM
CCRF-CEM leukemia
  TGI: > 100 µM
M14 melanoma
  TGI: > 100 µM
HCC-2998 colon
  TGI: 41.9 µM
NCI-H23 lung
  TGI: 90.7 µM
NCI-H460 lung
  TGI: > 100 µM
DLD-1 colon
  TGI: > 100 µM
OVCAR-5 ovarian
  TGI: 99.8 µM
CAKI-1 renal
  TGI: > 100 µM
MOLT-4 leukemia
  TGI: > 100 µM
TK-10 renal
  TGI: > 100 µM
NCI-H226 lung
  TGI: > 100 µM
SNB-75 CNS
  TGI: > 100 µM
EKVX NSCLC
  TGI: > 100 µM
DMS 273 small cell lung
  TGI: 37.6 µM
COLO 205 colon
  TGI: 71.1 µM
SR leukemia
  TGI: > 100 µM
OVCAR-3 ovarian
  TGI: > 100 µM
SNB-19 CNS
  TGI: > 100 µM
A549 NSCLC
  TGI: > 100 µM
UACC-257 melanoma
  TGI: > 100 µM
XF 498 CNS
  TGI: > 100 µM

## COc1ccc(C2Oc3c(c(O)cc4c3[C@H](c3ccc(O)cc3O)[C@H](O)C(c3ccc(O)c(O)c3)O4)C[C@@H]2O)cc1O (some centres not stated)
K-562 leukemia
  TGI: > 100 µM
DMS 114 small cell lung
  TGI: > 100 µM
HOP-92 NSCLC
  TGI: > 100 µM
M19-MEL melanoma
  TGI: > 100 µM
UO-31 renal
  TGI: > 100 µM
HL-60(TB) leukemia
  TGI: > 100 µM
HOP-18 NSCLC
  TGI: > 100 µM
786-0 renal
  TGI: > 100 µM
OVCAR-8 ovarian
  TGI: > 100 µM
OVCAR-4 ovarian
  TGI: > 100 µM
HCT-15 colon
  TGI: > 100 µM
SN12C renal
  TGI: > 100 µM
ACHN renal
  TGI: > 100 µM
LXFL 529 NSCLC
  TGI: > 100 µM
RPMI-8226 leukemia
  TGI: > 100 µM
NCI-H522 lung
  TGI: > 100 µM
MALME-3M melanoma
  TGI: > 100 µM
KM12 colon
  TGI: > 100 µM
LOX IMVI melanoma
  TGI: > 100 µM
SW-620 colon
  TGI: > 100 µM
SF-268 CNS
  TGI: > 100 µM
UACC-62 melanoma
  TGI: > 100 µM
SK-MEL-2 melanoma
  TGI: > 100 µM
HCT-116 colon
  TGI: > 100 µM
SF-539 CNS
  TGI: > 100 µM
HOP-62 NSCLC
  TGI: > 100 µM
RXF 393 renal
  TGI: > 100 µM
SF-295 CNS
  TGI: > 100 µM
HT29 colon
  TGI: > 100 µM
SK-MEL-5 melanoma
  TGI: > 100 µM
CCRF-CEM leukemia
  TGI: > 100 µM
M14 melanoma
  TGI: > 100 µM
U251 CNS
  TGI: > 100 µM
HCC-2998 colon
  TGI: > 100 µM
SNB-78 CNS
  TGI: > 100 µM
NCI-H23 lung
  TGI: > 100 µM
NCI-H460 lung
  TGI: > 100 µM
DLD-1 colon
  TGI: > 100 µM
OVCAR-5 ovarian
  TGI: > 100 µM
CAKI-1 renal
  TGI: > 100 µM
IGROV1 ovarian
  TGI: > 100 µM
MOLT-4 leukemia
  TGI: > 100 µM
TK-10 renal
  TGI: > 100 µM
NCI-H226 lung
  TGI: > 100 µM
SNB-75 CNS
  TGI: > 100 µM
SK-OV-3 ovarian
  TGI: > 100 µM
A498 renal
  TGI: > 100 µM
EKVX NSCLC
  TGI: > 100 µM
DMS 273 small cell lung
  TGI: > 100 µM
COLO 205 colon
  TGI: > 100 µM
KM20L2 colon
  TGI: > 100 µM
SR leukemia
  TGI: > 100 µM
OVCAR-3 ovarian
  TGI: > 100 µM
SNB-19 CNS
  TGI: > 100 µM
A549 NSCLC
  TGI: > 100 µM
UACC-257 melanoma
  TGI: > 100 µM

— PubChem BioAssay (NCI)
